For series [1] the following is noted: previous formulations, e.g. antide 1 mg/ml in 5% glucose; cited from earlier work.
A short description of series [2]: Solubility of antide in isotonic media. The series is classed as physicochemical.

Converted amounts (≈) assume the structure as drawn. Square brackets hold non-standard residues; d marks the D form. Peptide text beside a SMILES is read from it. * marks the point of attachment. Phe(4-Cl) = N[CH](Cc1ccc(Cl)cc1)C(=O)O; 2Nal = N[CH](Cc1ccc2ccccc2c1)C(=O)O; Lys(iPr) = CC(C)NCCCC[CH](N)C(=O)O; 3Pal = N[CH](Cc1cccnc1)C(=O)O; Nicotinoyl = O=C(c1cccnc1)*

Take `CC(=O)NC(Cc1ccc2ccccc2c1)C(=O)NC(Cc1ccc(Cl)cc1)C(=O)NC(Cc1cccnc1)C(=O)NC(CO)C(=O)NC(CCCCNC(=O)c1cccnc1)C(=O)NC(CCCCNC(=O)c1cccnc1)C(=O)NC(CC(C)C)C(=O)NC(CCCCNC(C)C)C(=O)N1CCCC1C(=O)NC(C)C(N)=O` (stereo not drawn) [antide] (Ac-[2Nal][Phe(4-Cl)][3Pal]SK(Nicotinoyl)K(Nicotinoyl)L[Lys(iPr)]PA-NH2; configuration not given here): the bioavailability result in series [1] was “poor bioavailability”. The values for the solubility in series [2] (0.9% NaCl solution) and in series [2] (phosphate buffered saline) were 25 µg/mL (≈ 15.7 µM) and 16 µg/mL (≈ 10.1 µM), respectively.

A word on the solubility: it is the concentration that dissolves in the medium under given conditions.

These data come from patent US6914121B2, “PEG-LHRH analog conjugates” (Applied Research Systems Ars Holding N.V., priority 1998, dated 2005).
